Test systems include CAKI-1 renal; RXF 393 renal; TK-10 renal; SN12C renal; SK-MEL-28 melanoma; T-47D breast; M14 melanoma; MOLT-4 leukemia; XF 498 CNS.
Holding throughout (assay): inhibition of tumour cell growth, NCI panel, 48 h

Drawing on PubChem BioAssay (NCI), this text covers GI50 and TGI for 10 molecules.

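In this assay, cells in 96-well plates receive the compound at five concentrations for 48 hours. Endpoints are linearly interpolated between the surrounding concentrations. GI50: concentration for 50% inhibition of growth. TGI is the concentration that stops growth completely.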 A value given as a limit tells only on which side of the number the result lay.

Turning to `Cc1ccc(NC(=O)c2ccoc2)cc1-c1ccc(C(=O)NCC2CC2)cc1`, the GI50 with CAKI-1 renal is greater than 25 µM; in the assay on RXF 393 renal, greater than 25 µM; with TK-10 renal it was greater than 25 µM; with SN12C renal, greater than 25 µM; in the assay on SK-MEL-28 melanoma it was greater than 25 µM; in the assay on T-47D breast, 7.16 µM. In addition, the GI50 in the assay with M14 melanoma and with MOLT-4 leukemia was greater than 25 µM each time. In addition, the TGI in the assay on CAKI-1 renal, in the assay with RXF 393 renal, with TK-10 renal, in the assay with SN12C renal, in the assay with SK-MEL-28 melanoma and in the assay on T-47D breast was greater than 25 µM each time. The TGI with M14 melanoma and in the assay on MOLT-4 leukemia was greater than 25 µM throughout.
As to `OC(c1ccccc1)c1c(-c2ccccc2)[nH]c(-c2ccccc2)c1C(O)c1ccccc1` (stereo not drawn), the TGI came to 6.75 µM in the assay on CAKI-1 renal; 10.3 µM in the assay on RXF 393 renal; 18.9 µM in the assay with TK-10 renal; 5.68 µM with SN12C renal; 12.1 µM in the assay on SK-MEL-28 melanoma; 40.4 µM with T-47D breast. The TGI was 11.8 µM with M14 melanoma and 7 µM in the assay with MOLT-4 leukemia.
Take `CCCCCCCCCCCC1=NC(C)(C)CN1C(C)C`: the GI50 is 2.68 µM in the assay with CAKI-1 renal; 2.17 µM in the assay with RXF 393 renal; 4.02 µM in the assay on TK-10 renal; 4.04 µM in the assay on SN12C renal; 1.78 µM with SK-MEL-28 melanoma; 2.9 µM in the assay with T-47D breast. For the same molecule, the values for the GI50 with M14 melanoma and in the assay with MOLT-4 leukemia were 1.89 µM and 2.67 µM, respectively. Moreover, the TGI in the assay on CAKI-1 renal is 14 µM; in the assay on RXF 393 renal it was 5.33 µM; in the assay with TK-10 renal, 16.1 µM; in the assay on SN12C renal, 16.7 µM; in the assay on SK-MEL-28 melanoma it was 3.37 µM; in the assay on T-47D breast, 8.73 µM. In addition, the values for the TGI with M14 melanoma and in the assay with MOLT-4 leukemia were 3.57 µM and 7.44 µM, respectively.
Turning to `Cc1cnoc1/N=C1\C=C(Nc2oncc2C)C(=O)c2ccccc21`, the TGI in the assay with XF 498 CNS, in the assay on CAKI-1 renal, with RXF 393 renal, in the assay on TK-10 renal, in the assay on SN12C renal and with SK-MEL-28 melanoma was greater than 100 µM in each case. Moreover, the TGI in the assay on M14 melanoma and in the assay on MOLT-4 leukemia was greater than 100 µM each time.
On to `C[C@]12CC[C@H]3[C@@H](CCC4=CC(=O)CC[C@@]43C)[C@]1(O)CC[C@]2(O)C(=O)CO`, for which the TGI in the assay on CAKI-1 renal, in the assay on RXF 393 renal, with TK-10 renal, with SN12C renal, in the assay with SK-MEL-28 melanoma and in the assay on T-47D breast was greater than 100 µM throughout. Moreover, the TGI with M14 melanoma and with MOLT-4 leukemia was greater than 100 µM each time.
For `COc1cccc2c1C(=O)c1c(O)c3c(c(O)c1C2=O)C[C@@](O)(/C(C)=N/NC(=O)c1cccc([N+](=O)[O-])c1)C[C@@H]3OC1CC(N)C(O)C(C)O1` (stereo partly drawn), the GI50 with CAKI-1 renal is 0.411 µM; in the assay with RXF 393 renal, 0.494 µM; in the assay on TK-10 renal it was 0.896 µM; in the assay with SN12C renal, 0.233 µM; in the assay on SK-MEL-28 melanoma, 0.608 µM; with T-47D breast, 0.176 µM. Also, the GI50 in the assay on M14 melanoma was 0.324 µM; in the assay on MOLT-4 leukemia, 0.0524 µM. The TGI in the assay with CAKI-1 renal was 2.74 µM; in the assay on RXF 393 renal, 2.21 µM; in the assay on TK-10 renal, 10.2 µM; with SN12C renal it was 16.9 µM; with SK-MEL-28 melanoma, 2.45 µM; in the assay on T-47D breast, 1.26 µM. Further, the TGI turned out to be 1.51 µM in the assay on M14 melanoma and 4.9 µM with MOLT-4 leukemia.
For `O=c1oc2ccccc2cc1P(=O)(O)O`, the TGI in the assay with CAKI-1 renal, in the assay with RXF 393 renal, in the assay on TK-10 renal, in the assay on SN12C renal, with SK-MEL-28 melanoma and with T-47D breast was greater than 100 µM throughout. For the same molecule, the TGI in the assay with M14 melanoma and in the assay on MOLT-4 leukemia was greater than 100 µM in each case.
`COc1cc2c(cc1OCCCCCOc1ccc(-c3nc4ccccc4s3)cc1)N=C[C@@H]1CCCN1C2=O`: the GI50 was 2.36 µM in the assay with CAKI-1 renal; 1.46 µM with RXF 393 renal; 8.48 µM in the assay on TK-10 renal; 2.95 µM with SN12C renal; 8.74 µM with SK-MEL-28 melanoma; 0.799 µM in the assay with T-47D breast. In addition, the GI50 in the assay on M14 melanoma is 1.46 µM; with MOLT-4 leukemia, 3.5 µM. In addition, the TGI in the assay with CAKI-1 renal was greater than 62 µM; in the assay with RXF 393 renal, 5.43 µM; in the assay with TK-10 renal, greater than 57.7 µM; with SN12C renal, 18.9 µM; with SK-MEL-28 melanoma it was 31.7 µM; in the assay on T-47D breast it was 4.11 µM. In addition, the TGI with M14 melanoma was determined as 9.08 µM; with MOLT-4 leukemia, 20 µM.
Regarding `CCCN1CCC(Oc2cc(Nc3nc(Nc4cccc(F)c4C(N)=O)c4cc[nH]c4n3)c(OC)cc2Cl)CC1`, the GI50 is 3.58 µM in the assay with CAKI-1 renal; 2.28 µM in the assay on RXF 393 renal; 3.14 µM with TK-10 renal; 3.97 µM with SN12C renal; 2.82 µM in the assay on SK-MEL-28 melanoma; 1.32 µM in the assay with T-47D breast. For the same molecule, the GI50 is 0.859 µM with M14 melanoma and 3.48 µM in the assay with MOLT-4 leukemia. In addition, the TGI came to 7.64 µM with CAKI-1 renal; 6.03 µM in the assay on RXF 393 renal; 7.01 µM with TK-10 renal; 7.99 µM with SN12C renal; 6.09 µM in the assay with SK-MEL-28 melanoma; 3.12 µM in the assay with T-47D breast. Further, the TGI was determined as 2.88 µM in the assay with M14 melanoma and 7.97 µM with MOLT-4 leukemia.
As for `O=C(Nc1ccccc1/C=C/c1n[nH]c2ccccc12)c1ccccc1`, the GI50 was 2.98 µM with CAKI-1 renal; 4.58 µM in the assay with RXF 393 renal; 4.85 µM in the assay with TK-10 renal; 2 µM with SN12C renal; 4.31 µM in the assay with SK-MEL-28 melanoma; 3.77 µM with T-47D breast. Besides, the GI50 is 3.32 µM in the assay with M14 melanoma and 7.27 µM with MOLT-4 leukemia. The TGI turned out to be 16.9 µM in the assay with CAKI-1 renal; 17.3 µM with RXF 393 renal; 16 µM in the assay on TK-10 renal; 5.4 µM in the assay on SN12C renal; 17.7 µM in the assay on SK-MEL-28 melanoma; 15.8 µM in the assay with T-47D breast. Besides, the figures for the TGI in the assay on M14 melanoma and with MOLT-4 leukemia were 15 µM and 38.2 µM, respectively.
